ChEMBL document CHEMBL5215004, “Meroantarctines A-C, Meroterpenoids with Rearranged Skeletons from the Alga-Derived Fungus Penicillium antarcticum KMM 4685 with Potent p-Glycoprotein Inhibitory Activity” (J Nat Prod, 2022)
Active and inactive are the calls of the source. The calls are words filed in the database; no cut-off is given here.

How the values were obtained:
[1] = molecular target: ATP-dependent translocase ABCB1 (Homo sapiens, UniProt P08183); assay: Inhibition of p-glycoprotein in docetaxel-resistant human PC-3 cells assessed as inhibition of calcein excretion at 0.39 to 50 uM incubated for 30 mins by fluorescence based plate reader analysis; format: cell-based; details: pc-3, 0.5 h, dose 0.39-50 µM
PNT2 = assay: Cytotoxicity against human PNT2 cells assessed as reduction in cell viability at <= 100 uM incubated for 48 hrs by MTT assay; format: toxicity, cell-based; details: pnt2, 48 h
RWPE-1 = assay: Cytotoxicity against human RWPE-1 cells assessed as reduction in cell viability at <= 100 uM incubated for 48 hrs by MTT assay; format: toxicity, cell-based; details: rwpe-1, 48 h
PC-3 [2] = assay: Synergistic cytotoxicity against docetaxel-resistant human PC-3 cells assessed as reduction in cell viability at 12.5 to 100 uM incubated for 48 hrs in the presence of docetaxel by MTT assay; format: functional, cell-based; details: dose 12.5-100 µM
PC-3 [3] = assay: Cytotoxicity against docetaxel-resistant human PC-3 cells assessed as reduction in cell viability at 0.5 to 64 uM pretreated with tariquidar for 1 hrs followed by compound addition and measured after 48 hrs by MTT assay; format: functional, cell-based; details: dose 0.5-64 µM

Chain of ATP-dependent translocase ABCB1 (P08183 whole entry): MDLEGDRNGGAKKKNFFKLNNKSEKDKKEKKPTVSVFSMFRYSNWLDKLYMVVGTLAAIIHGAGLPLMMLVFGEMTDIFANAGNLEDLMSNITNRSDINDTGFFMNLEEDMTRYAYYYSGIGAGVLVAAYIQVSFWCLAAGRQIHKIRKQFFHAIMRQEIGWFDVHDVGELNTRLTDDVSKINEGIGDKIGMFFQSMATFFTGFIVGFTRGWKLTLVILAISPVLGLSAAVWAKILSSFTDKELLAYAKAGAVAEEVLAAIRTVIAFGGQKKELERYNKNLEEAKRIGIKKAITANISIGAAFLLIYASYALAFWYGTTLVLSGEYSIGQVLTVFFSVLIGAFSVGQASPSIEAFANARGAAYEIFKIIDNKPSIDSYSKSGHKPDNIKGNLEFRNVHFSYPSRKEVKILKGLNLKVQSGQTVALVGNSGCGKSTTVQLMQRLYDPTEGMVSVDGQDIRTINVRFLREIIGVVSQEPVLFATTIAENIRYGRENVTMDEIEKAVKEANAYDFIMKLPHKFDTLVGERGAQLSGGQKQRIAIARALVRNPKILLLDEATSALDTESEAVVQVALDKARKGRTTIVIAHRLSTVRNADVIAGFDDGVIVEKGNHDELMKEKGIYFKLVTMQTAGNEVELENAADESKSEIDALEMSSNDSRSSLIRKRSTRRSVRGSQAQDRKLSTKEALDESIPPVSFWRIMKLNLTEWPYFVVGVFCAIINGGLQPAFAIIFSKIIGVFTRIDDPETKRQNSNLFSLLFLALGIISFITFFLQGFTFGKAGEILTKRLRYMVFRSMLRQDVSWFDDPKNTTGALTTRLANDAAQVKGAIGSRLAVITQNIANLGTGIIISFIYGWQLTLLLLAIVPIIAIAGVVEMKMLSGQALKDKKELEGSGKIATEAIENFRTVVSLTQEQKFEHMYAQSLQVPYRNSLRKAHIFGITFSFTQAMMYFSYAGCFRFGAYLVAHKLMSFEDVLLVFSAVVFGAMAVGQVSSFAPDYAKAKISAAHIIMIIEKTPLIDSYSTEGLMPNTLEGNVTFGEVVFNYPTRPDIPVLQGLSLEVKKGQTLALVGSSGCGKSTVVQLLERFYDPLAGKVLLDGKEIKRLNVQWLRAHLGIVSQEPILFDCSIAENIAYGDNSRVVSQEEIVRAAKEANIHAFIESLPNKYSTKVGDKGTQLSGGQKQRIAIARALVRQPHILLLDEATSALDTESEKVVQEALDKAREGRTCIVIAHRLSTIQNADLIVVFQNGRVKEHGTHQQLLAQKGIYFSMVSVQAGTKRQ

| Structure (SMILES) | inhibition (INH) [1] | Activity (PNT2) | Activity (RWPE-1) | Activity (PC-3 [2]) | Activity (PC-3 [3]) |
| --- | --- | --- | --- | --- | --- |
| COC(=O)[C@@]12C(=O)C(=O)O[C@@]3(C=C1C)[C@]2(C)C[C@@H]1OC(=O)[C@]32CC[C@H](OC(C)=O)C(C)(C)[C@@H]12 | Active | Non-Toxic | Non-Toxic | Active |  |
| C=C1C=C2[C@]34CC[C@H](OC(C)=O)C(C)(C)[C@H]3[C@H](C[C@]2(C)[C@]2(C(=O)OC)C(=O)[C@](C)(O)C(=O)[C@]12C)OC4=O | Active | Non-Toxic | Non-Toxic | Active |  |
| COC(=O)[C@H]1C(=O)O[C@]2(/C=C(\C)C(C)=O)[C@]34CC[C@H](OC(C)=O)C(C)(C)[C@H]3[C@H](C[C@]12C)OC4=O | Active | Non-Toxic | Non-Toxic | Active |  |
| CC(=O)O[C@@]12CO[C@@H]1C[C@H](O)[C@@]1(C)C(=O)[C@H](O)C3=C(C)[C@@H](OC(=O)[C@H](O)[C@@H](NC(=O)OC(C)(C)C)c4ccccc4)C[C@@](O)([C@@H](OC(=O)c4ccccc4)[C@H]21)C3(C)C |  |  |  |  | Active |
| COC(=O)[C@@]1(C(=O)C(C)=O)C(C)=C(C)C=C2[C@]34CC[C@H](OC(C)=O)C(C)(C)[C@H]3[C@H](C[C@@]21C)OC4=O | Active | Non-Toxic | Non-Toxic | Active |  |
